Assays:
Assay type in all cases: in vivo
[1] = tested on: Spodoptera littoralis; assay: Example B9: Spodoptera littoralis (Egyptian cotton leaf worm), cotton leaf discs, L1 larvae; details: foliar, 72 h, application rate of 200 ppm, 3 days after infestation, read-out: control in at least one of the three categories (mortality, anti-feedant effect, or growth inhibition)
Outline: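 Cotton leaf discs on agar sprayed with aqueous test solutions from 10,000 ppm DMSO stocks, dried, then infested with five L1 larvae. Mortality, anti-feeding and growth inhibition scored against untreated samples 3 days after infestation.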

[2] = tested on: Diabrotica balteata; assay: Example B2: Diabrotica balteata (corn root worm), maize sprouts, L2 larvae; details: 96 h, application rate of 200 ppm, 4 days after infestation, read-out: control in at least one of the two categories (mortality or growth inhibition)
Experimental: Example B2: Diabrotica balteata (Corn Root Worm)
Maize sprouts placed onto an agar layer in 24-well microtiter plates were treated with aqueous test solutions prepared from 10,000 ppm DMSO stock solutions by spraying. After drying, the plates were infested with L2 larvae (6 to 10 per well). The samples were assessed for mortality and growth inhibition in comparison to untreated samples 4 days after infestation.
The following compounds gave an effect of at least 80% control in at least one of the two categories (mortality or growth inhibition) at an application rate of 200 ppm: […]

[3] = tested on: Plutella xylostella; assay: Example B8: Plutella xylostella (diamond back moth), artificial diet 24-well, eggs; details: 192 h, application rate of 200 ppm, 8 days after infestation, read-out: effect in at least one of the two categories (mortality or growth inhibition)
Outline: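 Artificial diet in 24-well plates treated with aqueous dilutions of DMSO stock (10,000 ppm stock) and dried, then infested with Plutella eggs. Mortality and growth inhibition scored versus untreated samples 8 days after infestation.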

[4] = tested on: Chilo suppressalis; assay: Example B1: Chilo suppressalis (striped rice stemborer), artificial diet, L2 larvae; details: 144 h, application rate of 200 ppm, 6 days after infestation, read-out: control in at least one of the three categories (mortality, anti-feedant effect, or growth inhibition)
Outline: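 Artificial diet was treated with aqueous test solutions made from 10,000 ppm DMSO stocks, dried, then infested with L2 larvae (6-8 per well). Mortality, anti-feeding effect and growth inhibition were scored against untreated samples 6 days after infestation, and control was counted when any category exceeded untreated.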

[5] = tested on: Myzus persicae; assay: Example B7: Myzus persicae (green peach aphid), intrinsic activity, sucrose solution 24-well; details: 120 h, application rate of 12.5 ppm, 5 days after infestation, read-out: control (mortality)
Description: Example B7: Myzus persicae (Green Peach Aphid). Intrinsic Activity
Test compounds prepared from 10,000 ppm DMSO stock solutions were applied by pipette into 24-well microtiter plates and mixed with sucrose solution. The plates were closed with a stretched Parafilm. A plastic stencil with 24 holes was placed onto the plate and infested pea seedlings were placed directly on the Parafilm. The infested plate was closed with a gel blotting paper and another plastic stencil and then turned upside down. The samples were assessed for mortality 5 days after infestation.
The following compounds gave an effect of at least 80% control at an application rate of 12.5 ppm: […]

C[C@H](NC(=O)Nc1ccc(C(F)(F)F)cc1C(F)(F)F)c1ncnn1-c1ccc(C#N)cn1 [Example P13, 1-[2,4-bis(trifluoromethyl)phenyl]-3-[(1S)-1-[2-(5-cyano-2-pyridyl)-1,2,4-triazol-3-yl]ethyl]urea]
≥ 80%: percent control (mortality, anti-feedant effect or growth inhibition) at 200 ppm [1] | percent control (mortality or growth inhibition) at 200 ppm [2] | percent effect (mortality or growth inhibition) at 200 ppm [3] | percent control (mortality, anti-feedant effect or growth inhibition) at 200 ppm [4]

C[C@H](NC(=O)Nc1cc(C(F)(F)F)ccc1Cl)c1ncnn1-c1ncccn1 [Example P14, 1-[2-chloro-5-(trifluoromethyl)phenyl]-3-[(1S)-1-(2-pyrimidin-2-yl-1,2,4-triazol-3-yl)ethyl]urea]
≥ 80%: percent control (mortality, anti-feedant effect or growth inhibition) at 200 ppm [1] | percent control (mortality or growth inhibition) at 200 ppm [2] | percent effect (mortality or growth inhibition) at 200 ppm [3] | percent control (mortality, anti-feedant effect or growth inhibition) at 200 ppm [4]

C[C@H](NC(=O)Nc1cc(Cl)c(Cl)cc1Cl)c1ncnn1-c1ncccn1 [Example P43, 1-[(1S)-1-(2-pyrimidin-2-yl-1,2,4-triazol-3-yl)ethyl]-3-(2,4,5-trichlorophenyl)urea]
≥ 80%: percent control (mortality, anti-feedant effect or growth inhibition) at 200 ppm [1] | percent control (mortality or growth inhibition) at 200 ppm [2] | percent effect (mortality or growth inhibition) at 200 ppm [3] | percent control (mortality, anti-feedant effect or growth inhibition) at 200 ppm [4]

C[C@H](NC(=O)N1CCc2cc(C(F)(F)F)ccc21)c1ncnn1-c1ncccn1 [Example P57, N-[(1S)-1-(2-pyrimidin-2-yl-1,2,4-triazol-3-yl)ethyl]-5-(trifluoromethyl)indoline-1-carboxamide]
≥ 80%: percent control (mortality, anti-feedant effect or growth inhibition) at 200 ppm [1] | percent control (mortality or growth inhibition) at 200 ppm [2] | percent effect (mortality or growth inhibition) at 200 ppm [3] | mortality at 12.5 ppm [5]

C[C@H](NC(=O)N(C)c1ccc(Cl)cc1Cl)c1ncnn1-c1ncccn1 [Example P114, 1-(2,4-dichlorophenyl)-1-methyl-3-[(1S)-1-(2-pyrimidin-2-yl-1,2,4-triazol-3-yl)ethyl]urea]
≥ 80%: percent control (mortality, anti-feedant effect or growth inhibition) at 200 ppm [1] | percent control (mortality or growth inhibition) at 200 ppm [2] | percent effect (mortality or growth inhibition) at 200 ppm [3] | percent control (mortality, anti-feedant effect or growth inhibition) at 200 ppm [4]

C[C@H](NC(=O)Nc1cc(C(F)(F)F)cnc1Cl)c1ncnn1-c1ncccn1 [Example P127, 1-[2-chloro-5-(trifluoromethyl)-3-pyridyl]-3-[(1S)-1-(2-pyrimidin-2-yl-1,2,4-triazol-3-yl)ethyl]urea]
≥ 80%: percent control (mortality, anti-feedant effect or growth inhibition) at 200 ppm [1] | percent effect (mortality or growth inhibition) at 200 ppm [3] | percent control (mortality, anti-feedant effect or growth inhibition) at 200 ppm [4] | mortality at 12.5 ppm [5]

C[C@H](NC(=O)Nc1ccc(Br)cc1Br)c1ncnn1-c1ncccn1 [Example P130, 1-(2,4-dibromophenyl)-3-[(1S)-1-(2-pyrimidin-2-yl-1,2,4-triazol-3-yl)ethyl]urea]
≥ 80%: percent control (mortality, anti-feedant effect or growth inhibition) at 200 ppm [1] | percent effect (mortality or growth inhibition) at 200 ppm [3] | percent control (mortality, anti-feedant effect or growth inhibition) at 200 ppm [4] | mortality at 12.5 ppm [5]

C[C@@H](NC(=O)Nc1cc(OC(F)(F)C(F)F)c(Cl)cc1Cl)c1nccnc1-c1ncccn1 [Example P136, 1-[2,4-dichloro-5-(1,1,2,2-tetrafluoroethoxy)phenyl]-3-[(1R)-1-(3-pyrimidin-2-ylpyrazin-2-yl)ethyl]urea]
≥ 80%: percent control (mortality or growth inhibition) at 200 ppm [2] | percent effect (mortality or growth inhibition) at 200 ppm [3] | percent control (mortality, anti-feedant effect or growth inhibition) at 200 ppm [4]

C[C@H](NC(=O)Nc1cc(C(F)(F)F)c(Cl)cc1Cl)c1ncnn1-c1ncc(C#N)s1 [Example P140, 1-[(1S)-1-[2-(5-cyanothiazol-2-yl)-1,2,4-triazol-3-yl]ethyl]-3-[2,4-dichloro-5-(trifluoromethyl)phenyl]urea]
≥ 80%: percent control (mortality, anti-feedant effect or growth inhibition) at 200 ppm [1] | percent control (mortality or growth inhibition) at 200 ppm [2] | percent effect (mortality or growth inhibition) at 200 ppm [3] | percent control (mortality, anti-feedant effect or growth inhibition) at 200 ppm [4]

C[C@H](NC(=O)Nc1cc(OC(F)(F)C(F)C(F)(F)F)c(Cl)cc1Cl)c1ncnn1-c1ncccn1 (stereo partly drawn) [Example P223, 1-[2,4-dichloro-5-(1,1,2,3,3,3-hexafluoropropoxy)phenyl]-3-[(1S)-1-(2-pyrimidin-2-yl-1,2,4-triazol-3-yl)ethyl]urea]
≥ 80%: percent control (mortality, anti-feedant effect or growth inhibition) at 200 ppm [1] | percent control (mortality or growth inhibition) at 200 ppm [2] | percent effect (mortality or growth inhibition) at 200 ppm [3] | percent control (mortality, anti-feedant effect or growth inhibition) at 200 ppm [4]

CC(NC(=O)Nc1ccc(Br)cc1OC(F)F)c1nccnc1-c1ncccn1 (stereo not drawn) [Example P241, 1-[4-bromo-2-(difluoromethoxy)phenyl]-3-[1-(3-pyrimidin-2-ylpyrazin-2-yl)ethyl]urea]
≥ 80%: percent control (mortality, anti-feedant effect or growth inhibition) at 200 ppm [1] | percent effect (mortality or growth inhibition) at 200 ppm [3] | percent control (mortality, anti-feedant effect or growth inhibition) at 200 ppm [4] | mortality at 12.5 ppm [5]

C[C@H](NC(=O)Nc1cnc(C(F)(F)F)cc1Cl)c1nccnc1-c1ccc(C#N)cn1 [Example P250, 1-[4-chloro-6-(trifluoromethyl)-3-pyridyl]-3-[(1S)-1-[3-(5-cyano-2-pyridyl)pyrazin-2-yl]ethyl]urea]
≥ 80%: percent control (mortality, anti-feedant effect or growth inhibition) at 200 ppm [1] | percent effect (mortality or growth inhibition) at 200 ppm [3] | percent control (mortality, anti-feedant effect or growth inhibition) at 200 ppm [4] | mortality at 12.5 ppm [5]

CC(NC(=O)Nc1cc(OC(F)(F)C(F)F)c(Cl)cc1Cl)c1nccnc1-n1nccn1 (stereo not drawn) [Example P258, 1-[2,4-dichloro-5-(1,1,2,2-tetrafluoroethoxy)phenyl]-3-[1-[3-(triazol-2-yl)pyrazin-2-yl]ethyl]urea]
≥ 80%: percent control (mortality or growth inhibition) at 200 ppm [2] | percent effect (mortality or growth inhibition) at 200 ppm [3] | percent control (mortality, anti-feedant effect or growth inhibition) at 200 ppm [4]

CC(NC(=O)Nc1ccc(Br)cc1OC(F)F)c1nccnc1-n1nccn1 (stereo not drawn) [Example P261, 1-[4-bromo-2-(difluoromethoxy)phenyl]-3-[1-[3-(triazol-2-yl)pyrazin-2-yl]ethyl]urea]
≥ 80%: percent control (mortality, anti-feedant effect or growth inhibition) at 200 ppm [1] | percent control (mortality or growth inhibition) at 200 ppm [2] | percent effect (mortality or growth inhibition) at 200 ppm [3] | percent control (mortality, anti-feedant effect or growth inhibition) at 200 ppm [4]

C[C@H](NC(=O)Nc1cc(C(F)(F)F)c(Cl)cc1Br)c1ncnn1-c1cnccn1 [Example P279, 1-[2-bromo-4-chloro-5-(trifluoromethyl)phenyl]-3-[(1S)-1-(2-pyrazin-2-yl-1,2,4-triazol-3-yl)ethyl]urea]
≥ 80%: percent control (mortality, anti-feedant effect or growth inhibition) at 200 ppm [1] | percent control (mortality or growth inhibition) at 200 ppm [2] | percent effect (mortality or growth inhibition) at 200 ppm [3] | percent control (mortality, anti-feedant effect or growth inhibition) at 200 ppm [4]

C[C@H](NC(=O)Nc1cc(OC(F)(F)F)c(F)cc1Br)c1ncnn1-c1ncccn1 [Example P316, 1-[2-bromo-4-fluoro-5-(trifluoromethoxy)phenyl]-3-[(1S)-1-(2-pyrimidin-2-yl-1,2,4-triazol-3-yl)ethyl]urea]
≥ 80%: percent control (mortality, anti-feedant effect or growth inhibition) at 200 ppm [1] | percent effect (mortality or growth inhibition) at 200 ppm [3] | percent control (mortality, anti-feedant effect or growth inhibition) at 200 ppm [4] | mortality at 12.5 ppm [5]

C[C@H](NC(=O)Nc1cc(F)c(Cl)cc1Cl)c1ncnn1-c1ncccn1 [Example P380, 1-(2,4-dichloro-5-fluoro-phenyl)-3-[(1S)-1-(2-pyrimidin-2-yl-1,2,4-triazol-3-yl)ethyl]urea]
≥ 80%: percent control (mortality, anti-feedant effect or growth inhibition) at 200 ppm [1] | percent effect (mortality or growth inhibition) at 200 ppm [3] | percent control (mortality, anti-feedant effect or growth inhibition) at 200 ppm [4] | mortality at 12.5 ppm [5]
